Reference: US9222118B2 (priority 2008, dated 2015)
“Also recorded” adds a separate entry of the source. Structures can show the parent of a compound that is named as a salt. Where two headings read alike, the source gives them in different places.

Experiments:
VSVΔG*-Ebolavirus GP = type: cell-based
EbolaΔVP30-GFP virus = assay: microbe, parasite or virus in culture; type: cell-based, Zaire ebolavirus; details: for % GFP inhibition: 5 µM; for inhibition at 5 µM: read-out: % GFP inhibition
EbolaΔVP30-GFP = type: cell-based, Zaire ebolavirus
Ebolavirus minigenome = type: cell-based
[1] = system: Vesicular stomatitis virus (VSV) strain Indiana; type: cell-based
in vitro = details: green monkey
vaccinia virus = type: cell-based
adenovirus Ad-5 = type: cell-based
influenza virus = type: cell-based
[2] = system: VSV pseudotyped with Ebola GP glycoprotein; type: cell-based, Ebolavirus
[3] = system: phosphoinositide-3 (PI3) kinase-Akt pathway; type: cell-based
[4] = system: VSV pseudotyped with the GP protein of Marburgvirus; type: cell-based
VSV = type: cell-based
[5] = system: VSV pseudotyped with GPs of all known subtypes of Ebolavirus (Zaire, Reston, Sudan, Ivory Coast); type: cell-based

1,2alpha-Epoxy-7-Deacetoxy-7-Oxo-Deoxyhydrogedunin
CC50 (VeroVP30 cells): > 10 µM
% infectivity of VSVΔG*-Ebolavirus GP (VSVΔG*-Ebolavirus GP): 6.5±1.6%
% GFP inhibition (EbolaΔVP30-GFP virus): 75%
IC50 (EbolaΔVP30-GFP virus; read-out: IC50): 7.12 µM

17-Allylamino-17-demethoxygeldanamycin [17-AAG]
reduction of EbolaΔVP30 virus growth (EbolaΔVP30-GFP): 92%
Infectivities of VSVΔG*-Ebolavirus GP standardized by the infectivities of VSVΔG*-VSV G (VSVΔG*-Ebolavirus GP; 10 μM): 110%
% luc activity from the Ebolavirus minigenome (Ebolavirus minigenome): 7.9%±1.5%

NS(=O)(=O)c1nn2cc(-c3ccccc3)nc2s1 [AEG 3482, 6-Phenylimidazo[2,1-b]-1,3,4-thiadiazole-2-sulfonamide]
reduction of EbolaΔVP30 virus growth (EbolaΔVP30-GFP): 5%
Infectivities of VSVΔG*-Ebolavirus GP standardized by the infectivities of VSVΔG*-VSV G (VSVΔG*-Ebolavirus GP; 10 μM): 135%
% luc activity from the Ebolavirus minigenome (Ebolavirus minigenome): 34.0%±8.0%

CCc1cc(-c2n[nH]c(C)c2-c2ccc3c(c2)OCCO3)c(O)cc1O [CCT 018159, 4-[4-(2,3-Dihydro-1,4-benzodioxin-6-yl)-5-methyl-1H-pyrazol-3-yl]-6-ethyl-1,3-benzenediol]
reduction of EbolaΔVP30 virus growth (EbolaΔVP30-GFP): 97%
effect on VSVΔG*-Ebolavirus GP infectivity (VSVΔG*-Ebolavirus GP): slightly reduced
Infectivities of VSVΔG*-Ebolavirus GP standardized by the infectivities of VSVΔG*-VSV G (VSVΔG*-Ebolavirus GP; 10 μM): 71%
reduction in Ebolavirus GP-dependent virus infection (VSVΔG*-Ebolavirus GP; 10 μM): ~30%
% luc activity from the Ebolavirus minigenome (Ebolavirus minigenome): 8.8%±2.6%

CC(=O)O[C@@H]1CC2C(C)(C)C(=O)C3OC3[C@]2(C)C2CC[C@@]3(C)[C@H](c4ccoc4)OC(=O)C4OC43[C@@]21C (stereo partly shown) [Epoxygedunin]
% cell viability (VeroVP30 cells): 71%
CC50 (VeroVP30 cells): > 10 µM
inhibition of EbolaΔVP30-GFP growth (EbolaΔVP30-GFP): completely inhibited
% GFP inhibition (EbolaΔVP30-GFP virus): 103%
IC50 (EbolaΔVP30-GFP virus; read-out: IC50): < 0.15 µM
% luc activity from the Ebolavirus minigenome (Ebolavirus minigenome): 1.0%±0.1%
effect on protein expression from the Ebolavirus minigenome (Ebolavirus minigenome): inhibit protein expression from the Ebolavirus minigenome

COC1=C2C[C@@H](C)C[C@H](OC)[C@H](O)[C@@H](C)/C=C(\C)[C@H](OC(N)=O)[C@@H](OC)/C=C\C=C(/C)C(=O)NC(=CC1=O)C2=O [GM, geldanamycin]
reduction of EbolaΔVP30 virus growth (EbolaΔVP30-GFP): 30%
Infectivities of VSVΔG*-Ebolavirus GP standardized by the infectivities of VSVΔG*-VSV G (VSVΔG*-Ebolavirus GP; 10 μM): 137%
% luc activity from the Ebolavirus minigenome (Ebolavirus minigenome): 24.7%±7.7%

CC(=O)O[C@@H]1C[C@H]2C(C)(C)C(=O)C=C[C@]2(C)[C@H]2CC[C@@]3(C)[C@H](c4ccoc4)OC(=O)[C@H]4O[C@]43[C@@]21C [Gedunin]
inhibition of VSV growth [1]: slightly delay the propagation
% cell viability (VeroVP30 cells; green monkey): 77%
CC50 (in vitro): > 10 µM
inhibition of EbolaΔVP30-GFP growth (EbolaΔVP30-GFP): completely inhibited
inhibition of vaccinia virus growth (vaccinia virus): slightly delay the propagation
IC50 (EbolaΔVP30-GFP virus; Zaire ebolavirus): 0.33 µM
inhibition at 5 µM (EbolaΔVP30-GFP virus; Zaire ebolavirus): 102%
inhibition of adenovirus growth (adenovirus Ad-5): slightly inhibitory; also recorded: slightly delay the propagation
% luc activity from the Ebolavirus minigenome (Ebolavirus minigenome): 1.3%±0.2%
effect on protein expression from the Ebolavirus minigenome (Ebolavirus minigenome): inhibit protein expression from the Ebolavirus minigenome

CC(=O)O[C@@H]1CC2C(C)(C)[C@H](O)C=C[C@]2(C)C2CC[C@@]3(C)[C@H](c4ccoc4)OC(=O)C4OC43[C@@]21C (stereo partly shown) [Gedunol]
% cell viability (VeroVP30 cells): 82%
% GFP inhibition (EbolaΔVP30-GFP virus): 79%

CCC(C)C(OC(C)=O)C(=O)O[C@H]1[C@H](O)[C@@H]2[C@@]3(C)C=CC(=O)C(C)(C)[C@@H]3C[C@@H](OC(=O)C(O)C(C)C)[C@@]2(C)[C@@]23O[C@@H]2C[C@@H](c2ccoc2)[C@]13C (stereo partly shown) [Heudelottin C]
% cell viability (VeroVP30 cells): 5%
% GFP inhibition (EbolaΔVP30-GFP virus): 104%

CC(=O)O[C@@H]1CC2C(C)(C)C=CC(=O)[C@]2(C)C2CC[C@@]3(C)[C@H](c4ccoc4)OC(=O)C4OC43[C@@]21C (stereo partly shown) [Isogedunin]
% cell viability (VeroVP30 cells): 86%
% GFP inhibition (EbolaΔVP30-GFP virus): 35%

CC(=O)O[C@H]1C[C@@H](OC(C)=O)C(C)(C)[C@@H]2C[C@@H](OC(C)=O)[C@]3(C)[C@H](CC[C@@]4(C)[C@H](c5ccoc5)OC(=O)[C@H]5O[C@@]534)[C@@]12C [Khivorin]
% cell viability (VeroVP30 cells; green monkey): 82%
inhibition at 5 µM (EbolaΔVP30-GFP virus; Zaire ebolavirus): 0%

C=C1[C@@H]([C@@]2(C)[C@@H](OC(C)=O)CC(=O)O[C@](C)(COC(C)=O)[C@@H]2C(=O)OC)[C@@H](OC=O)[C@H](OC(=O)[C@H](O)[C@H](C)CC)[C@@]2(C)[C@H](c3ccoc3)CC(=O)[C@]12O [Prieurianin]
% cell viability (VeroVP30 cells; green monkey): 89%
inhibition at 5 µM (EbolaΔVP30-GFP virus; Zaire ebolavirus): -17%

CCC(C)C(=O)O[C@@H]1C[C@@]2(C)[C@H](c3ccoc3)OC(=O)CC23OC2(C)O[C@]14[C@]1(C)[C@@H](CC(=O)OC)C5(C)CC1(O)[C@](O)(C5OC(=O)C1(C)OC1C)[C@@H](OC(C)=O)[C@]34O2 (stereo partly shown) [Utilin]
% cell viability (VeroVP30 cells; green monkey): 75%
inhibition at 5 µM (EbolaΔVP30-GFP virus; Zaire ebolavirus): 4%

CN1C2CCC1CC(OC(c1ccccc1)c1ccccc1)C2 (stereo not shown) [benztropine mesylate]
effect on growth of influenza virus (influenza virus): does not affect the growth
infection of VSV pseudotyped with Ebola GP bound to cell surfaces [2]: inhibit infection
inhibition of the PI3 kinase-Akt pathway [3]: did not inhibit
reduction of virus titers [4]: about 75%
effect on growth of VSV (VSV): does not affect the growth
reduction of titers of pseudotyped viruses [5]: 98-99%

Heudelottin E
% cell viability (VeroVP30 cells): 93%
% GFP inhibition (EbolaΔVP30-GFP virus): −49%
